Values quoted from earlier work in patent US20050272687A1, “Stable S-adenosyl-l-methionine” (priority 2004, published 2005).

What was measured:
[1] = test system: S-adenosyl-1-methionine-dependent methyltransferases
[2] = same conditions as in example 10 (room temperature, light, closed bottle), after 4 months
[3] = in vivo
[4] = test system: nucleolar 2-O-methyltransferase
[5] = during the course of the clinical trial
[6] = test system: alcoholic liver cirrhosis; conditions: oral; as compared with a placebo treated group
[7] = test system: beta-adrenergic

Question: With `C[S@@+](CC[C@@H](N)C(=O)O)C[C@H]1O[C@@H](n2cnc3c(N)ncnc32)[C@H](O)[C@@H]1O` (racemic) [(+)-SAM, (R,S)-S-adenosyl-1-methionine] as the compound, how does the “inhibition of enzyme-catalyzed transmethylation reactions” value [1] read?
Answer: potent inhibitor

Question: Which results are given for `C[S+](CC[C@H](N)C(=O)O)C[C@H]1O[C@@H](n2cnc3c(N)ncnc32)[C@H](O)[C@@H]1O.C[S+](CC[C@H](N)C(=O)O)C[C@H]1O[C@@H](n2cnc3c(N)ncnc32)[C@H](O)[C@@H]1O.O=S(=O)([O-])CCCCS(=O)(=O)[O-]` (stereo partly drawn) [S-adenosyl-1-methionine 1,4 butanedisulfonate]?
Answer: deterioration [2]: 43.9%; oral absorption compared with other salts [3]: better absorbed orally than any other salts

Question: Which “tightness of enzyme binding relative to (R,S)-S-adenosyl-1-methionine” value [4] does the source give for `C[S@@+](CC[C@H](N)C(=O)O)C[C@H]1O[C@@H](n2cnc3c(N)ncnc32)[C@H](O)[C@@H]1O` [(S,S)-S-adenosyl-1-methionine] here?
Answer: 10 fold

Question: For `C[S+](CC[C@H](N)C(=O)O)C[C@H]1O[C@@H](n2cnc3c(N)ncnc32)[C@H](O)[C@@H]1O.Cc1ccc(S(=O)(=O)[O-])cc1` (stereo partly drawn) [S-adenosyl-1-methionine tosylate], which deterioration [2] is on record?
Answer: 92.9%

Question: Which “(R,S) S-adenosyl-1-methionine share after epimerization” value [5] does the source give for `C[S+](CC[C@H](N)C(=O)[O-])C[C@H]1O[C@@H](n2cnc3c(N)ncnc32)[C@H](O)[C@@H]1O` (stereo partly drawn) [S-adenosyl-1-methionine] here?
Answer: 55%

Question: What about the “(S,S) S-adenosyl-1-methionine share after epimerization” value [5] of the same compound?
Answer: 45%

Question: What about the “overall mortality and/or progression to liver transplant” value [6] of the same compound?
Answer: 29% vs 12%

Question: For `CC(C)NCC(O)COc1cccc2ccccc12` (stereo not drawn) [propranolol], which “potency of L-form relative to D-enantiomer” value [7] is on record?
Answer: 100 times
